From ChEMBL document CHEMBL1140024 (Bioorg Med Chem Lett, 2007)

How the values were obtained:
Format in all cases: functional
[1] = target: T1, Peroxisome proliferator-activated receptor alpha (Homo sapiens, UniProt Q07869); assay: Agonist activity at human recombinant PPARalpha by GAL4 transactivation assay
T1 sequence (Q07869 whole entry): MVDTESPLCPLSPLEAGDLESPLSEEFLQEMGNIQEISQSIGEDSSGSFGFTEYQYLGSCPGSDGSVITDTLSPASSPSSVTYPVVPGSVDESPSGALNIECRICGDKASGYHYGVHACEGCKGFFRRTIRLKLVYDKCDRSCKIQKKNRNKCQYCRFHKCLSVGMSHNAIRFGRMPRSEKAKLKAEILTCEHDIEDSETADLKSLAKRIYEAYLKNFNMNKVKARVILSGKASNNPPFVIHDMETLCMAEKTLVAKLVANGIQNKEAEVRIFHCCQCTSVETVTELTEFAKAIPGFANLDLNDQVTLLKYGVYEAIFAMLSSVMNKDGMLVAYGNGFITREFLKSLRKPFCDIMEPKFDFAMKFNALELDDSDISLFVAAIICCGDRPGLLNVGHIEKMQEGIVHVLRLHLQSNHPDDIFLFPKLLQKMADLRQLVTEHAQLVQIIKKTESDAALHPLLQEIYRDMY

[2] = target: T2, Peroxisome proliferator-activated receptor gamma (Homo sapiens, UniProt P37231); assay: Agonist activity at human recombinant PPARgamma by GAL4 transactivation assay
T2 sequence (P37231 whole entry): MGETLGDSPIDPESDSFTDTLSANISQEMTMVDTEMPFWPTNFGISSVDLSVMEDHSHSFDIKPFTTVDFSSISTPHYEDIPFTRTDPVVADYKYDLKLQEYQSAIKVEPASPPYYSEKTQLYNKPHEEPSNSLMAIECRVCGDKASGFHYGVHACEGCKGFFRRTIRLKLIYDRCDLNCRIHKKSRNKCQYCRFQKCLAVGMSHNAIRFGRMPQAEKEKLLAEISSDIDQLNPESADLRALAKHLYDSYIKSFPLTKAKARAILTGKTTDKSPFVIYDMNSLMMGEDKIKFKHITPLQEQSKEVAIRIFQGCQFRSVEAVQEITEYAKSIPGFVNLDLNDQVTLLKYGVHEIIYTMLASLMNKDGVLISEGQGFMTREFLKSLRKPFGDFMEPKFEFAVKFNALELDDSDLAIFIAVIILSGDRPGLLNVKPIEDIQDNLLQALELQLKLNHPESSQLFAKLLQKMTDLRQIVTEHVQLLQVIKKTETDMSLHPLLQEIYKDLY

[3] = target: T3, Peroxisome proliferator-activated receptor delta (Homo sapiens, UniProt Q03181); assay: Agonist activity at human recombinant PPARdelta by GAL4 transactivation assay
T3 sequence (Q03181 whole entry): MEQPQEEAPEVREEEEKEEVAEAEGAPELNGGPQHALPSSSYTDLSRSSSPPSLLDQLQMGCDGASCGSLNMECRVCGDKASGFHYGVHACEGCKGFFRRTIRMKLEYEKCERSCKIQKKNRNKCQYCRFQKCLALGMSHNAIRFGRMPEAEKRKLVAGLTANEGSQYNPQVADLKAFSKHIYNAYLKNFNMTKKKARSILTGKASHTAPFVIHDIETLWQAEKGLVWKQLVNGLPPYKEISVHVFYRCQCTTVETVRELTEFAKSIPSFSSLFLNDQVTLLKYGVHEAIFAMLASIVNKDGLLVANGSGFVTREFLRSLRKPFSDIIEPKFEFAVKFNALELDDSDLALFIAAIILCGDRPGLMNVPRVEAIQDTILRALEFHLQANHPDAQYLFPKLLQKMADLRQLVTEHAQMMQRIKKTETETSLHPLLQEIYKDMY

Rattus norvegicus [4] = assay: Decrease in triglyceride level in Sprague-Dawley rat at 1 mg/kg after 7 days; parameters: scale not given: the % may be the effect or the level left
Rattus norvegicus [5] = assay: Increase in liver weight in Sprague-Dawley rat at 1 mg/kg after 7 days
Mus musculus [6] = assay: Increase in plasma HDL-C in human apoA1 transgenic mouse at 3 mg/kg after 14 days
Mus musculus [7] = assay: Increase in plasma HDL-C in human apoA1 transgenic mouse at 300 mg/kg after 14 days
Mus musculus [8] = assay: Increase in plasma HDL-C in human apoA1 transgenic mouse at 1 mg/kg after 14 days

EC50 ([1]; read-out: EC50) [nM] | EC50 ([2]; read-out: EC50) [nM] | EC50 ([3]; read-out: EC50) [nM] | Compound | other results
8 | > 10000 |  | CCC(Oc1cccc(CN(CCCOc2ccc(F)cc2)c2nc3ccccc3o2)c1)C(=O)O (centres undefined) | 
 | > 10000 |  | CCC(Oc1cccc(CN(CCCOc2ccc(OC)cc2)c2nc3ccccc3o2)c1)C(=O)O (centres undefined) | 
24 | > 10000 | 1400 | CCC(Oc1cccc(CN(CCCOc2cccc([N+](=O)[O-])c2)c2nc3ccccc3o2)c1)C(=O)O (centres undefined) | 
 | 210 | 120 | CCC(Oc1cccc(CN(CCCOc2ccc(C)cc2)c2nc3ccccc3o2)c1)C(=O)O (centres undefined) | 
1 | 750 | 830 | CCC(Oc1cccc(CN(CCCOc2ccc(C)c(C)c2)c2nc3ccccc3o2)c1)C(=O)O (centres undefined) | 
20 | 1190 | 1570 | CC[C@H](Oc1cccc(CN(CCCOc2ccc(F)cc2)c2nc3ccccc3o2)c1)C(=O)O | 
 | 1310 | 1800 | CC[C@H](Oc1cccc(CN(CCCOc2ccc(OC)cc2)c2nc3ccccc3o2)c1)C(=O)O | 
9 | > 10000 |  | CCC(Oc1cccc(CN(CCCOc2ccccc2)c2nc3ccccc3o2)c1)C(=O)O (centres undefined) | 
120 | > 10000 |  | CCC(Oc1cccc(CN(CCCOc2ccc(S(=O)(=O)OC)cc2)c2nc3ccccc3o2)c1)C(=O)O (centres undefined) | 
130 | 870 | 1660 | CC[C@H](Oc1cccc(CN(CCCOc2ccccc2)c2nc3ccccc3o2)c1)C(=O)O | 
 |  | 1580 | CC[C@@H](Oc1cccc(CN(CCCOc2ccc(OC)cc2)c2nc3ccccc3o2)c1)C(=O)O [PEMAFIBRATE] | Activity (Rattus norvegicus [4]): -49%; Activity (Rattus norvegicus [5]): 25%; Activity (Mus musculus [8]): 194%

Second part, the compound before the results:

Compound | EC50 ([1]; read-out: EC50) [nM] | EC50 ([2]; read-out: EC50) [nM] | EC50 ([3]; read-out: EC50) [nM] | other results
CCC(Oc1cccc(CN(CCCOc2ccccc2)c2nc3cc(C(F)(F)F)ccc3o2)c1)C(=O)O (centres undefined) | 23 | 400 | 160 | 
CCC(Oc1cccc(CN(CCCOc2ccccc2)c2nc3cc(C)ccc3o2)c1)C(=O)O (centres undefined) | 100 | > 10000 | 5000 | 
CCC(Oc1cccc(CN(CCCOc2ccccc2)c2nc3cc(O)ccc3o2)c1)C(=O)O (centres undefined) | 180 | > 10000 | 140 | 
CCC(Oc1cccc(CN(CCCOc2ccc(F)cc2F)c2nc3ccccc3o2)c1)C(=O)O (centres undefined) | 11 | 2100 | 6500 | 
CCC(Oc1cccc(CN(CCCOc2ccc(O)cc2)c2nc3ccccc3o2)c1)C(=O)O (centres undefined) | 260 | 1400 | 3 | 
CC[C@@H](Oc1cccc(CN(CCCOc2ccc(F)cc2)c2nc3ccccc3o2)c1)C(=O)O |  |  |  | Activity (Rattus norvegicus [4]): -46%; Activity (Rattus norvegicus [5]): 20%; Activity (Mus musculus [6]): 147%
CC(C)(Oc1ccccc1CN(CCOc1ccccc1)c1nc2ccccc2o1)C(=O)O |  |  |  | EC50 [1]: Not Active; EC50 [2]: Not Active; EC50 [3]: Not Active
CC(C)(Oc1ccc(CN(CCOc2ccccc2)c2nc3ccccc3o2)cc1)C(=O)O |  |  |  | EC50 [1]: Not Active; EC50 [2]: Not Active; EC50 [3]: Not Active
CC(C)(Oc1cccc(CN(CCOc2ccccc2)c2nc3ccccc3o2)c1)C(=O)O | 630 | 2100 |  | 
CC(C)(Oc1cccc(CN(CCCOc2ccccc2)c2nc3ccccc3o2)c1)C(=O)O | 190 | 5000 | 1400 | 
CC(Oc1cccc(CN(CCCOc2ccccc2)c2nc3ccccc3o2)c1)C(=O)O (centres undefined) |  |  | 2700 | 
CC(Oc1cccc(CCN(CCCOc2ccccc2)c2nc3ccccc3o2)c1)C(=O)O (centres undefined) | 10 | 1800 | 2300 | 
CCC(Oc1cccc(CN(CCCOc2ccccc2)c2nc3ccc(F)cc3o2)c1)C(=O)O (centres undefined) | 5 | 1100 | 1900 | 
CCC(Oc1cccc(CN(CCCOc2ccc(F)c(F)c2)c2nc3ccccc3o2)c1)C(=O)O (centres undefined) | 2 | 1800 | 1300 | 
CC[C@@H](Oc1cccc(CN(CCCOc2ccccc2)c2nc3ccccc3o2)c1)C(=O)O |  |  |  | Activity (Rattus norvegicus [4]): -51%; Activity (Rattus norvegicus [5]): 19%; Activity (Mus musculus [6]): 201%
CCC(Oc1cccc(CN(CCCOc2ccccc2)c2nc3c(O)cccc3o2)c1)C(=O)O (centres undefined) | 160 | 2000 | 1900 | 
CC(C)(Oc1cccc(CCCN(CCOc2ccccc2)c2nc3ccccc3o2)c1)C(=O)O |  | 100 | 800 | 
CCC(Oc1cccc(CN(CCCOc2ccccc2)c2nc3cccc(F)c3o2)c1)C(=O)O (centres undefined) | 2 | 530 | 8000 | 
CCC(Oc1cccc(CN(CCCOc2ccc(C)cc2C)c2nc3ccccc3o2)c1)C(=O)O (centres undefined) | 1 | 130 | 110 | 
CCC(Oc1cccc(CN(CCCOc2ccc3c(c2)OCO3)c2nc3ccccc3o2)c1)C(=O)O (centres undefined) | 7 | 1800 | 1700 | 
CC(C)OC(=O)C(C)(C)Oc1ccc(C(=O)c2ccc(Cl)cc2)cc1 [FENOFIBRATE] |  |  |  | Activity (Mus musculus [7]): 145%
